Here are results for five compounds from patent US10406238B2, “Ligand ionophore conjugates” (PURDUE RESEARCH FOUNDATION, priority 2015, dated 2019).

One data set concerns FRβ-expressing RAW cells. The experiment in a line: Endosomal escape in FRβ-expressing RAW cells (confocal). The format is cell-based.
A further data set addresses folate receptors. The settings on record: read-out: binding affinity Kd; cited from earlier work.
The target in a further data set is T1, folate receptor (Homo sapiens, UniProt P15328).
T1 construct: endogenous in cells; host or cells: KB cells (human; maintained at Purdue Cancer Cell Culture Facility)
T1 sequence (P15328 25-234): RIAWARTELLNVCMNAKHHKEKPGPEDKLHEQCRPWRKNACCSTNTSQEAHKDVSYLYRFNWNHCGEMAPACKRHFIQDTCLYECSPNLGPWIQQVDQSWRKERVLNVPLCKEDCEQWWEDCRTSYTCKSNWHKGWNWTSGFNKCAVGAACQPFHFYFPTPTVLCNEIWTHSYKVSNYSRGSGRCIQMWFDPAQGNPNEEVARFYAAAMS
The experiment in a line: Binding affinity to folate receptors in KB cells.

Data set [1] deals with KB cells. As to the kind of experiment: Confocal microscopy for endosomal release in KB cells. The format is cell-based, human.
The test system of data set [2] is KB cells.
Data set [3] deals with KB cells. As to the kind of experiment: cells. The conditions noted are these: Homo sapiens, read-out: IC50 concentration, growth of KB cells.

For the compound `CCN(CC)c1ccc2c(-c3ccc(S(=O)(=O)NCCSSC[C@H](CC(=O)O)NC(=O)[C@H](CCCCN)NC(=O)[C@H](CC(=O)O)NC(=O)CC[C@H](NC(=O)c4ccc(NCc5cnc6nc(N)[nH]c(=O)c6n5)cc4)C(=O)O)cc3S(=O)(=O)[O-])c3ccc(=[N+](CC)CC)cc-3oc2c1` [compound 2, reference compound], the “accumulation of dye inside the endosomes” value with FRβ-expressing RAW cells (10 nM FR, by 2 h, with or without folate-nigericin conjugate 1) is listed as “significant accumulation”.
In the case of `Nc1nc2ncc(CNc3ccc(C(=O)N[C@@H](CCC(=O)O)C(=O)O)cc3)nc2c(=O)[nH]1` [Folic acid], the Kd at folate receptors is 0.0001 µM.
With `CO[C@@H]1C[C@@H](C[C@H]2CC[C@H](C)C([C@@H](C)C(=O)OCCSSC[C@H](NC(=O)[C@H](CC(=O)O)NC(=O)[C@H](CC(=O)O)NC(=O)[C@H](CCCNC(=N)N)NC(=O)[C@H](CC(=O)O)NC(=O)CC[C@H](NC(=O)c3ccc(NCc4cnc5nc(N)[nH]c(=O)c5n4)cc3)C(=O)O)C(=O)O)O2)O[C@]2(O[C@@](C)(C3CC[C@@](C)([C@@H]4O[C@@H]([C@@H]5O[C@@](O)(CO)[C@H](C)C[C@@H]5C)C[C@@H]4C)O3)C[C@H]2C)[C@@H]1C` (some centres unmarked) [conjugate 1], the “binding affinity to folate receptors compared to folate-rhodamine compound 2” value at folate receptor turned out to be 5 times lower. Further, in the data set on KB cells [1], the “effective concentration for co-incubation” value is reported as 200 nM, the “endosomal release of the rhodamine dye” value is listed as “lower”, the “release of rhodamine dye from the endosome” value is “considerable release” and the “time of high release of rhodamine dye from endosomes” value was in the range of 1 to 3 h. The “endosome size versus cells not treated with conjugate” value in the data set on FRβ-expressing RAW cells (100 nM FN with 10 nM FR, FIG. 9) is “somewhat larger”.
Consider `CO[C@@H]1C[C@@H](C[C@H]2CC[C@H](C)C([C@@H](C)C(=O)O)O2)O[C@]2(O[C@@](C)(C3CC[C@@](C)([C@@H]4O[C@@H]([C@@H]5O[C@@](O)(COC(=O)NCCSSC[C@H](NC(=O)[C@H](CC(=O)O)NC(=O)[C@H](CC(=O)O)NC(=O)[C@H](CCCNC(=N)N)NC(=O)[C@H](CC(=O)O)NC(=O)CC[C@H](NC(=O)c6ccc(NCc7cnc8nc(N)[nH]c(=O)c8n7)cc6)C(=O)O)C(=O)O)[C@H](C)C[C@@H]5C)C[C@@H]4C)O3)C[C@H]2C)[C@@H]1C` (some centres unmarked) [conjugate 5], for which the “binding affinity to folate receptors compared to folate-rhodamine compound 2” value at folate receptor was “three times lower”.
For the compound `CO[C@@H]1C[C@@H](C[C@H]2CC[C@H](C)[C@H]([C@@H](C)C(=O)O)O2)O[C@]2(O[C@](C)([C@H]3CC[C@@](C)([C@@H]4O[C@@H]([C@H]5O[C@@](O)(CO)[C@H](C)C[C@@H]5C)C[C@@H]4C)O3)C[C@H]2C)[C@@H]1C` [nigericin], in the data set with KB cells [2], the “toxicity to the cells” value is listed as “not toxic”. For the same compound, the IC50 in the data set with KB cells [3] amounted to 12 µM.
